This assay deals with Glutamate carboxypeptidase 2 (Homo sapiens, UniProt Q04609).

pIC50: −log10 of the molar value.

Glutamate carboxypeptidase 2, sequence (Q04609 whole entry): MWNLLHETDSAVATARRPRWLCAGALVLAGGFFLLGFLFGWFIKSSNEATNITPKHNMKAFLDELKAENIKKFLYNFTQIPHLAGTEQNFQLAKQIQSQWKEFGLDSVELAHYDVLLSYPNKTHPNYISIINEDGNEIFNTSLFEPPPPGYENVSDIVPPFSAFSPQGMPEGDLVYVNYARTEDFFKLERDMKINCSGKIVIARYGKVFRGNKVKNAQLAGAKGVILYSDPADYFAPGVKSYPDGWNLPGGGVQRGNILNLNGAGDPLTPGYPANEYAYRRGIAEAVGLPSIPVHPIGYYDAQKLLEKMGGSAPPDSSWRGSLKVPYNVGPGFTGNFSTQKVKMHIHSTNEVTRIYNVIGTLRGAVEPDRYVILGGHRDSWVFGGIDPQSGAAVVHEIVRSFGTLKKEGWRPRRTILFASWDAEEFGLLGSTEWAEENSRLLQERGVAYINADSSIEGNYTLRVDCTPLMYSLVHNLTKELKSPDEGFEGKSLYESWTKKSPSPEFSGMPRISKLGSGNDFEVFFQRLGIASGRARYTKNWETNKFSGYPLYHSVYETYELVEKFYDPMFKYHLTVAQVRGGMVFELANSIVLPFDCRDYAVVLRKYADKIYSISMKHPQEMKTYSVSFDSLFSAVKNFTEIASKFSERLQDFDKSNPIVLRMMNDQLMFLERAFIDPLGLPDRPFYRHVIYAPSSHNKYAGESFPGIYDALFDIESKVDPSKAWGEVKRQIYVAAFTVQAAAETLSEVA
Description: Inhibition of human recombinant glutamate carboxypeptidase 2 by radioenzymatic assay

Broadly, the pIC50 is −log10 of the IC50, conventionally taken in molar units. A lower pIC50 goes with a high IC50. `N[C@@H](Cn1ccc(=O)[nH]c1=O)C(=O)O` [(S)-WILLARDIINE] showed a negative-log IC50 (pIC50) of 4.17.

For the compound `N[C@@H](COP(=O)(O)O)C(=O)O` [DEXFOSFOSERINE], the pIC50 is 3.28.

Regarding `N[C@@H](CCC(=O)O)C(=O)O` [GLUTAMIC ACID], the pIC50 is 3.37.

Compound `N[C@@H](Cn1oc(=O)[nH]c1=O)C(=O)O` [QUISQUALATE] showed a pIC50 of 5.02.
